Tested on: CHD (fatal CHD, definite non-fatal MI, or revascularization)
Assay: CARE: SNP by pravastatin treatment interaction, logistic regression (synergy index), CHD endpoint
Type: in vivo, human
Conditions: for OR (synergy index, SNP by pravastatin treatment interaction): CARE; for OR (synergy index), CARE, Prava vs Placebo: CHD endpoint
Excerpt: CARE was a secondary prevention trial and WOSCOPS was a primary prevention trial.
The CHD endpoint was defined in the analyses herein of CARE as a composite endpoint of fatal CHD, definite non-fatal MI, or revascularization, and was defined in the analyses herein of WOSCOPS as a composite endpoint of death from CHD, nonfatal MI, or revascularization. In both the CARE and WOSCOPS analyses herein, the CVD endpoint was defined as a composite endpoint of CHD or stroke. […] Revascularization, which can include percutaneous transluminal coronary angioplasty (PTCA), stent placement, and coronary artery bypass graft (CABG), are medical interventions that indicate the presence of CHD.
Cohort and case-only study designs were used to identify SNPs associated with response to statin treatment.
For each SNP, a logistic regression model having treatment status as the dependent variable and SNP as the independent predictor variable was performed, with terms for age, sex and race included in the model as covariates. The anti-log of the regression coefficient corresponding to the SNP is an estimate of the synergy index (SI) (Davis et al., “Imputing gene-treatment interactions when the genotype distribution is unknown using case-only and putative placebo analyses-a new method for the Genetics of Hypertension Associated Treatment (GenHAT) study”, Statistics in Medicine 23: (2004), pages 2413-2427). The SI is a ratio of odds ratios: for example in the CARE and WOSCOPS studies, the SI represents the factor by which the odds-ratio of statin treatment, compared with placebo, among major homozygous individuals is multiplied by in order to obtain the odds-ratio of treatment vs. placebo among heterozygous individuals; and multiplied by a second time to obtain the odds-ratio of treatment vs. placebo in minor homozygous individuals. The case-only study design results in a valid estimate of the SI under the assumption that genotype and treatment are independent in the population. In a randomized clinical trial, genotype and treatment are independent by design. The p-value for the regression coefficient corresponding to the SNP results from a test of the null hypothesis that the regression coefficient is equal to zero (SI is equal to one) and thus small p-values indicate the SI is unlikely equal to one and that the effect of treatment likely differs by genotype.
A case-only study design was used to test whether the reduction of CHD events by statin therapy (for CARE and WOSCOPS studies) differed according to genotype (a treatment by SNP interaction) for each SNP evaluated in the study.

SMILES: CC[C@H](C)C(=O)O[C@H]1C[C@H](O)C=C2C=C[C@H](C)[C@H](CC[C@@H](O)C[C@@H](O)CC(=O)O)[C@H]21 [Pravastatin, pravastatin]
- OR (synergy index, SNP by pravastatin treatment interaction) (rs992695, Imputed, allele C, model ADD, NMISS 790, 95% CI 0.4976-0.8019): 0.6317
- OR (synergy index, SNP by pravastatin treatment interaction) (rs992695, Imputed, allele C, model DOM, NMISS 790, 95% CI 0.4546-0.8068): 0.6056
- OR (synergy index, SNP by pravastatin treatment interaction) (rs9881685, Imputed, allele A, model ADD, NMISS 799, 95% CI 0.3695-0.7488): 0.526
- OR (synergy index, SNP by pravastatin treatment interaction) (rs9881685, Imputed, allele A, model DOM, NMISS 799, 95% CI 0.3327-0.7106): 0.4862
- OR (synergy index, SNP by pravastatin treatment interaction) (rs9936999, Imputed, allele G, model DOM, NMISS 485, 95% CI 1.294-2.746): 1.885
- OR (synergy index), CARE, Prava vs Placebo (SNP rs198462 (A1 G, A2 A), rec model, Caseonly): 1.57
- OR (synergy index), CARE, Prava vs Placebo (SNP rs198476 (A1 G, A2 A), rec model, cohort): 1.58
- OR (synergy index), CARE, Prava vs Placebo (SNP rs471579 (A1 A, A2 C), add model, Caseonly): 1.26
- OR (synergy index), CARE, Prava vs Placebo (SNP rs1324012 (A1 A, A2 G), add model, Caseonly): 0.78
- OR (synergy index), CARE, Prava vs Placebo (SNP rs1917527 (A1 A, A2 C), rec model, Caseonly): 0.34
- OR (synergy index), CARE, Prava vs Placebo (SNP rs2768652 (A1 C, A2 T), add model, cohort): 1.22
- OR (synergy index), CARE, Prava vs Placebo (SNP rs6563805 (A1 A, A2 G), add model, cohort): 0.76
- OR (synergy index), CARE, Prava vs Placebo (SNP rs7873371 (A1 A, A2 G), add model, Caseonly): 1.25
- OR (synergy index), CARE, Prava vs Placebo (SNP rs12553453 (A1 C, A2 A), add model, cohort): 1.22
- OR (synergy index), CARE, Prava vs Placebo (SNP rs12635482 (A1 C, A2 A), rec model, cohort): 0.54
- CARE OR (rs1948 allele A vs G (ref), Source CaseOnly): 1.52
- CARE OR (rs151806 allele G vs A (ref), Source cohort): 0.60
- CARE OR (rs205279 allele A vs G (ref), Source Caseonly): 1.94
- CARE OR (rs238272 allele A vs G (ref), Source CaseOnly): 1.44
- CARE OR (rs312929 allele G vs A (ref), Source cohort): 0.72
- CARE OR (rs316720 allele G vs A (ref), Source cohort): 0.67
- CARE OR (rs331555 allele A vs C (ref), Source cohort): 0.72
- CARE OR (rs354342 allele A vs G (ref), Source Caseonly): 0.70
- CARE OR (rs453625, allele A1 A (non-ref), A2 G (ref), source cohort, endpoint/model not given): 0.66
- CARE OR (rs610118 allele G vs A (ref), Source cohort): 0.43
- CARE OR (rs669684 allele G vs A (ref), Source cohort): 0.69
- CARE OR (rs842796 allele A vs G (ref), Source cohort): 1.72
- CARE OR (rs886469 allele G vs A (ref), Source cohort): 0.70
- CARE OR (rs969356 allele G vs A (ref), Source cohort): 0.69
- CARE OR (rs1035618 allele A vs C (ref), Source Caseonly): 1.38
- CARE OR (rs1076733, allele A1 A (non-ref), A2 G (ref), source cohort, endpoint/model not given): 0.70
- CARE OR (rs1182878, allele A1 A (non-ref), A2 G (ref), source cohort, endpoint/model not given): 0.79
- CARE OR (rs1343563 allele C vs A (ref), Source cohort): 0.61
- CARE OR (rs1349282 allele A vs G (ref), Source cohort): 0.55
- CARE OR (rs1382787 allele G vs A (ref), Source cohort): 1.37
- CARE OR (rs1474396, allele A1 A (non-ref), A2 C (ref), source cohort, endpoint/model not given): 1.35
- CARE OR (rs1615197 allele G vs A (ref), Source CaseOnly): 1.54
- CARE OR (rs1884897 allele A vs G (ref), Source cohort): 2.24
- CARE OR (rs2008165 allele G vs A (ref), Source cohort): 0.57
- CARE OR (rs2023650 allele A vs G (ref), Source cohort): 0.76
- CARE OR (rs2060411 allele A vs G (ref), Source cohort): 1.37
- CARE OR (rs2104506 allele A vs C (ref), Source cohort): 0.75
- CARE OR (rs2129571, allele A1 A (non-ref), A2 G (ref), source cohort, endpoint/model not given): 0.62
- CARE OR (rs2145540 allele A vs G (ref), Source cohort): 0.51
- CARE OR (rs2268650 allele A vs G (ref), Source cohort): 0.64
- CARE OR (rs2273816 allele A vs G (ref), Source CaseOnly): 1.56
- CARE OR (rs2290193, allele A1 C (non-ref), A2 A (ref), source cohort, endpoint/model not given): 0.53
- CARE OR (rs2376764 allele A vs G (ref), Source Caseonly): 0.61
- CARE OR (rs2418412 allele G vs A (ref), Source cohort): 2.20
- CARE OR (rs2483641, allele A1 A (non-ref), A2 G (ref), source cohort, endpoint/model not given): 0.65
- CARE OR (rs2534752 allele G vs A (ref), Source cohort): 1.60
- CARE OR (rs2626130 allele G vs A (ref), Source cohort): 1.29
- CARE OR (rs2695026 allele A vs G (ref), Source Caseonly): 0.70
- CARE OR (rs2793086 allele C vs A (ref), Source cohort): 0.61
- CARE OR (rs2941528 allele A vs G (ref), Source CaseOnly): 0.72
- CARE OR (rs3000490 allele G vs A (ref), Source cohort): 1.45
- CARE OR (rs3213616 allele A vs G (ref), Source cohort): 0.62

— patent US10563263B2, “Genetic polymorphisms associated with statin response and cardiovascular diseases, methods of detection and uses thereof” (CELERA CORPORATION, priority 2010, dated 2020)
